The target in one experiment is T1, human GIP receptor (Homo sapiens, UniProt P48546).
T1 construct: expressed in transfected cells; host or cells: BHK cells (parent line BHKTS13) containing CRE luciferase
T1 sequence (P48546 22-466): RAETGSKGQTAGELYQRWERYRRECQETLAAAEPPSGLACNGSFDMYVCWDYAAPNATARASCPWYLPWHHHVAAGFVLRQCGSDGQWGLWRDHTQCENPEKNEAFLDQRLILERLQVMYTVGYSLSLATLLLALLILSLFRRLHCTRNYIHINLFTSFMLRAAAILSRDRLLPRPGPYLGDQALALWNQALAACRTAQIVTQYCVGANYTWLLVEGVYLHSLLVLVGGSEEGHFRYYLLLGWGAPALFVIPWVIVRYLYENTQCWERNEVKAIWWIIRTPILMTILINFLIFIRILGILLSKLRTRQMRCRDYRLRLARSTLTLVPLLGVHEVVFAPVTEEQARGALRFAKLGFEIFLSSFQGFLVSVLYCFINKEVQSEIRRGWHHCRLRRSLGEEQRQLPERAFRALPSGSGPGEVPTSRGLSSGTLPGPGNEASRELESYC
As to the kind of experiment: In vitro functional potency (CRE luciferase; whole cells), human GIPR. It counts as cell-based. The settings on record: BHK CRE luc2P hGIPR whole cells; Table 2; read-out: hGIPR CRE Luc EC50.

The target of the next experiment is T2, human GLP-1 receptor (Homo sapiens, UniProt P43220).
T2 construct: expressed in transfected cells; host or cells: BHK cells (parent line BHKTS13) containing CRE luciferase
T2 sequence (P43220 24-463): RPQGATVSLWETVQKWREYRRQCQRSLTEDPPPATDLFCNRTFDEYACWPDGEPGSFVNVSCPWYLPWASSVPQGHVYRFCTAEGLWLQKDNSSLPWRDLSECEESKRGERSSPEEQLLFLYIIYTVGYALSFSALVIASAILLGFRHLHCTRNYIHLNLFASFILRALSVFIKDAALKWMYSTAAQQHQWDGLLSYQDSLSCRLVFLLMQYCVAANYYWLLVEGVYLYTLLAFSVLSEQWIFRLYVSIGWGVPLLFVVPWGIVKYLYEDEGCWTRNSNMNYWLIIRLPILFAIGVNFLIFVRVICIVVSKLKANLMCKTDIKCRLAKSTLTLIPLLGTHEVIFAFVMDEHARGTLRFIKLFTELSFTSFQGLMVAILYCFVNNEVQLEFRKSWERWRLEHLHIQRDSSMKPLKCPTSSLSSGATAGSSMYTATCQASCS
As to the kind of experiment: In vitro functional potency (CRE luciferase; whole cells), human GLP-1R. It counts as cell-based. The settings on record: BHK CRE luc2P hGLP-1R whole cells; Table 2; read-out: hGLP-1R CRE Luc EC50.

*1 amine or outer side, *2 acyl side, *3 side chain or, on linkers, in order; H or OH if unused. Where a SMILES comes first, the peptide text is derived from it. Side-chain parts run from the residue outwards. [ ]: non-standard residue; d: D form. The star is where a group is joined. C20 diacid = O=C(O)CCCCCCCCCCCCCCCCCCC(=O)*; γGlu = O=C(O)[C@H](CCC(=O)[*:2])N[*:1]; εLys = N[C@@H](CCCCN[*:1])C(=O)[*:2]; Aib = CC(C)(N)C(=O)O

Method for human GIP receptor: (§1) The purpose of this example is to test the functional activity, or potency, of the compounds in vitro at the human and mouse GLP-1, GIP, and Gcg receptors. The in vitro functional potency is the measure of target receptor activation in a whole cell assay.
(§2) In vitro functional potency was determined by measuring the response of the target receptor in a reporter gene assay in individual cell lines. The assay was performed in stably transfected BHK cell lines that expresses one of the following G-protein coupled receptors: human GLP-1 receptor, human GIP receptor, human Gcg receptor, mouse GLP-1 receptor, mouse GIP receptor, or mouse Gcg receptor; and where each cell line contains the DNA for the cAMP response element (CRE) coupled to a promoter and the gene for firefly luciferase (CRE luciferase). When the respective receptor is activated, it results in the production of cAMP, which in turn results in expression of the luciferase protein. When assay incubation is completed, luciferase substrate (luciferin) is added resulting in the enzymatic conversion of luciferin to oxyluciferin and producing bioluminescence. The luminescence is measured as the readout for the assay.
(§3) The cells lines used in these assays were BHK cells with BHKTS13 as a parent cell line. The cell lines were derived from a clone containing the CRE luciferase element and were established by further transfection with the respective receptor to obtain the relevant cell line.
(§4) The cells were cultured at 37° C. with 5% CO2 in Cell Culture Medium. They were aliquoted and stored in liquid nitrogen. The cells were kept in continuous culture and were seeded out the day before each assay.
(§5) GLP-1R and GcgR Cell Culture Medium consisted of DMEM medium with 10% FBS, 500 µg/mL G418, and 300 µg/mL hygromycin. GIPR Cell Culture Medium consisted of DMEM medium with 10% FBS, 400 µg/mL G418, and 300 µg/mL hygromycin. Assay Buffer consisted of DMEM w/o phenol red, 10 mM Hepes, 1× Glutamax, 1% ovalbumin, and 0.1% Pluronic F-68.
(§6) • 1) Cells were plated at 5000 cells/well and incubated overnight in the assay plate. • 2) Cells were washed once in DPBS. • 3) Stocks of the test compounds and reference compounds in concentrations ranging from 100-300 pM were diluted 1:150 in Assay Buffer.
(§7) The data from the microtiter plate reader was first regressed in an Excel in order to calculate the x-axis, log scale concentrations based on the individual test compound's stock concentration and the dilutions of the assay. […] The software performs a non-linear regression (log(agonist) vs response). A minimum of two replicates was measured for each sample. The reported values are averages of the replicates.
Method for human GLP-1 receptor: as §1, §2, §3, §4, §5, §6, §7

Broadly, the EC50 is the concentration at which the effect is half-maximal. Regarding `CC(C)C[C@H](NC(=O)[C@H](CC(C)C)NC(=O)[C@H](Cc1c[nH]c2ccccc12)NC(=O)[C@H](CCC(N)=O)NC(=O)[C@@H](NC(=O)[C@H](Cc1ccccc1)NC(=O)[C@H](CCC(=O)O)NC(=O)C(C)(C)NC(=O)[C@H](C)NC(=O)[C@H](C)NC(=O)[C@H](CCC(N)=O)NC(=O)[C@H](CCCCNC(=O)[C@@H](N)CCCCNC(=O)[C@@H](N)CCCCNC(=O)CC[C@H](NC(=O)CCCCCCCCCCCCCCCCCCC(=O)O)C(=O)O)NC(=O)[C@H](CCC(=O)O)NC(=O)[C@H](CC(C)C)NC(=O)[C@H](Cc1ccc(O)cc1)NC(=O)[C@H](CCCCN)NC(=O)[C@H](CO)NC(=O)[C@H](Cc1ccc(O)cc1)NC(=O)[C@H](CC(=O)O)NC(=O)[C@H](CO)NC(=O)[C@@H](NC(=O)[C@H](Cc1ccccc1)NC(=O)[C@@H](NC(=O)CNC(=O)[C@H](Cc1c[nH]cn1)NC(=O)C(C)(C)NC(=O)[C@@H](N)Cc1c[nH]cn1)[C@@H](C)O)[C@@H](C)O)C(C)C)C(=O)N[C@@H](CCC(=O)O)C(=O)NCC(=O)NCC(=O)N1CCC[C@H]1C(=O)N[C@@H](CO)C(=O)N[C@@H](CO)C(=O)NCC(=O)N[C@@H](C)C(=O)N1CCC[C@H]1C(=O)N1CCC[C@H]1C(=O)N1CCC[C@H]1C(=O)N[C@@H](CO)C(N)=O` [Compound No. 36] (H-H[Aib]HGTFTSDYSKYLEK([εLys-εLys-γGlu-C20 diacid])QAA[Aib]EFVQWLLEGGPSSGAPPPS-NH2), the EC50 on human GIP receptor amounted to 9.3 pM; on human GLP-1 receptor it was 1.8 pM.

Turning to `CC[C@H](C)[C@H](NC(=O)[C@H](CO)NC(=O)[C@H](Cc1ccc(O)cc1)NC(=O)[C@H](CC(=O)O)NC(=O)[C@H](CO)NC(=O)[C@@H](NC(=O)[C@H](Cc1ccccc1)NC(=O)[C@@H](NC(=O)CNC(=O)[C@H](Cc1c[nH]cn1)NC(=O)C(C)(C)NC(=O)[C@@H](N)Cc1c[nH]cn1)[C@@H](C)O)[C@@H](C)O)C(=O)N[C@@H](CC(C)C)C(=O)N[C@@H](CC(C)C)C(=O)N[C@@H](CCC(=O)O)C(=O)N[C@@H](CCCCNC(=O)[C@@H](N)CCCCNC(=O)[C@@H](N)CCCCNC(=O)CC[C@H](NC(=O)CCCCCCCCCCCCCCCCCCC(=O)O)C(=O)O)C(=O)N[C@@H](CCC(N)=O)C(=O)N[C@@H](C)C(=O)N[C@@H](C)C(=O)N[C@@H](CCC(=O)O)C(=O)N[C@@H](CCC(=O)O)C(=O)N[C@@H](Cc1ccccc1)C(=O)N[C@H](C(=O)N[C@@H](CCC(N)=O)C(=O)N[C@@H](Cc1c[nH]c2ccccc12)C(=O)N[C@@H](CC(C)C)C(=O)N[C@@H](CC(C)C)C(=O)N[C@@H](CCC(=O)O)C(=O)NCC(=O)NCC(=O)N1CCC[C@H]1C(=O)N[C@@H](CO)C(=O)N[C@@H](CO)C(=O)NCC(=O)N[C@@H](C)C(=O)N1CCC[C@H]1C(=O)N1CCC[C@H]1C(=O)N1CCC[C@H]1C(=O)N[C@@H](CO)C(N)=O)C(C)C` [Compound No. 49] (H-H[Aib]HGTFTSDYSILLEK([εLys-εLys-γGlu-C20 diacid])QAAEEFVQWLLEGGPSSGAPPPS-NH2), the EC50 at human GIP receptor worked out at 2.1 pM; on human GLP-1 receptor it was 1.4 pM.

The record behind these values is patent publication US20230391845A1, “GLP-1, GIP AND GLUCAGON RECEPTOR TRIPLE AGONISTS” (priority 2020, published 2023).
